Laboratory results taken from ChEMBL document CHEMBL1201862, “PubChem BioAssay data set” (2004).
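Exposure lasted 48 hours, with cells grown in 96-well plates and compounds tested at five concentrations. Abbreviation: GI50, concentration required for 50% inhibition of growth.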 The source made the active and inactive calls. No stated cut-off is given here; in the data, active = GI50 up to about 1.1 µM and inactive = higher.

Experiments:
Assay in all cases: inhibition of tumour cell growth, NCI panel, 48 h
RPMI-8226 = system: RPMI-8226
HT-29 = system: HT-29
OVCAR-3 = system: OVCAR-3
NCI-H226 = system: NCI-H226
HOP-92 = system: HOP-92
MOLT-4 = system: MOLT-4
KM12 = system: KM12
MCF7 = system: MCF7
TK-10 = system: TK-10
M14 = system: M14
MDA-MB-231 = system: MDA-MB-231
Hs-578T = system: Hs-578T
ACHN = system: ACHN
SNB-75 = system: SNB-75
CAKI-1 = system: CAKI-1
SK-MEL-28 = system: SK-MEL-28
UO-31 = system: UO-31
MDA-N = system: MDA-N
A549 = system: A549
786-0 = system: 786-0
A498 = system: A498
LOX IMVI = system: LOX IMVI
HCT-116 = system: HCT-116
SW-620 = system: SW-620
Malme-3M = system: Malme-3M
UACC-257 = system: UACC-257
EKVX = system: EKVX
OVCAR-8 = system: OVCAR-8
SK-MEL-2 = system: SK-MEL-2
NCI-H23 = system: NCI-H23
OVCAR-5 = system: OVCAR-5
NCI/ADR-RES = system: NCI/ADR-RES
SNB-19 = system: SNB-19
SR = system: SR
PC-3 = system: PC-3
IGROV-1 = system: IGROV-1
HOP-62 = system: HOP-62
OVCAR-4 = system: OVCAR-4
NCI-H522 = system: NCI-H522
SF-295 = system: SF-295
CCRF-CEM = system: CCRF-CEM
SK-MEL-5 = system: SK-MEL-5
SF-268 = system: SF-268
DU-145 = system: DU-145
K562 = system: K562
SF-539 = system: SF-539
HCT-15 = system: HCT-15
MDA-MB-435 = system: MDA-MB-435
HL-60 = system: HL-60
SN12C = system: SN12C
COLO 205 = system: COLO 205
HCC 2998 = system: HCC 2998
U-251 = system: U-251
BT-549 = system: BT-549
NCI-H460 = system: NCI-H460
UACC-62 = system: UACC-62
RXF 393 = system: RXF 393
T47D = system: T47D
SK-OV-3 = system: SK-OV-3

SMILES: CCOC(=O)c1[nH]c2ccccc2c1C(=O)C[C@H](NC(=O)C(F)(F)F)C(=O)OC
- GI50 (RPMI-8226): > 100 µM (inactive)
- GI50 (HT-29): > 100 µM (inactive)
- GI50 (OVCAR-3): > 100 µM (inactive)
- GI50 (NCI-H226): > 100 µM (inactive)
- GI50 (HOP-92): > 100 µM (inactive)
- GI50 (MOLT-4): > 100 µM (inactive)
- GI50 (KM12): > 100 µM (inactive)
- GI50 (MCF7): > 100 µM (inactive)
- GI50 (TK-10): > 100 µM (inactive)
- GI50 (M14): > 100 µM (inactive)
- GI50 (MDA-MB-231): > 100 µM (inactive)
- GI50 (Hs-578T): > 100 µM (inactive)
- GI50 (ACHN): > 100 µM (inactive)
- GI50 (SNB-75): > 100 µM (inactive)
- GI50 (CAKI-1): > 100 µM (inactive)
- GI50 (SK-MEL-28): > 100 µM (inactive)
- GI50 (UO-31): 75.3 µM (inactive)
- GI50 (MDA-N): > 100 µM (inactive)
- GI50 (A549): > 100 µM (inactive)
- GI50 (786-0): > 100 µM (inactive)
- GI50 (A498): > 100 µM (inactive)
- GI50 (LOX IMVI): > 100 µM (inactive)
- GI50 (HCT-116): > 100 µM (inactive)
- GI50 (SW-620): > 100 µM (inactive)
- GI50 (Malme-3M): > 100 µM (inactive)
- GI50 (UACC-257): > 100 µM (inactive)
- GI50 (EKVX): > 100 µM (inactive)
- GI50 (OVCAR-8): > 100 µM (inactive)
- GI50 (SK-MEL-2): > 100 µM (inactive)
- GI50 (NCI-H23): > 100 µM (inactive)
- GI50 (OVCAR-5): > 100 µM (inactive)
- GI50 (NCI/ADR-RES): 84.1 µM (inactive)
- GI50 (SNB-19): > 100 µM (inactive)
- GI50 (SR): > 100 µM (inactive)
- GI50 (PC-3): > 100 µM (inactive)
- GI50 (IGROV-1): > 100 µM (inactive)
- GI50 (HOP-62): > 100 µM (inactive)
- GI50 (OVCAR-4): > 100 µM (inactive)
- GI50 (NCI-H522): 97.3 µM (inactive)
- GI50 (SF-295): > 100 µM (inactive)
- GI50 (CCRF-CEM): > 100 µM (inactive)
- GI50 (SK-MEL-5): > 100 µM (inactive)
- GI50 (SF-268): > 100 µM (inactive)
- GI50 (DU-145): > 100 µM (inactive)
- GI50 (K562): > 100 µM (inactive)
- GI50 (SF-539): > 100 µM (inactive)
- GI50 (HCT-15): > 100 µM
- GI50 (MDA-MB-435): > 100 µM (inactive)
- GI50 (HL-60): > 100 µM (inactive)
- GI50 (SN12C): > 100 µM (inactive)
- GI50 (COLO 205): > 100 µM (inactive)
- GI50 (HCC 2998): > 100 µM (inactive)
- GI50 (U-251): > 100 µM (inactive)
- GI50 (BT-549): > 100 µM (inactive)
- GI50 (NCI-H460): 29.3 µM (inactive)

SMILES: CC(NC(=O)C(OC(=O)C(C)NC(=O)OC(C)(C)C)C(C)C)C(=O)OC(C(=O)O)C(C)C (configuration not stated)
- GI50 (RPMI-8226): > 100 µM (inactive)
- GI50 (HT-29): > 100 µM (inactive)
- GI50 (UACC-62): > 100 µM (inactive)
- GI50 (OVCAR-3): > 100 µM (inactive)
- GI50 (NCI-H226): > 100 µM (inactive)
- GI50 (HOP-92): > 100 µM (inactive)
- GI50 (MOLT-4): > 100 µM (inactive)
- GI50 (KM12): > 100 µM (inactive)
- GI50 (TK-10): > 100 µM (inactive)
- GI50 (M14): > 100 µM (inactive)
- GI50 (MDA-MB-231): > 100 µM (inactive)
- GI50 (Hs-578T): > 100 µM (inactive)
- GI50 (ACHN): > 100 µM (inactive)
- GI50 (SNB-75): > 100 µM (inactive)
- GI50 (CAKI-1): > 100 µM (inactive)
- GI50 (SK-MEL-28): > 100 µM (inactive)
- GI50 (UO-31): > 100 µM (inactive)
- GI50 (MDA-N): > 100 µM (inactive)
- GI50 (A549): > 100 µM (inactive)
- GI50 (786-0): > 100 µM (inactive)
- GI50 (SW-620): > 100 µM (inactive)
- GI50 (Malme-3M): > 100 µM (inactive)
- GI50 (UACC-257): > 100 µM (inactive)
- GI50 (EKVX): > 100 µM (inactive)
- GI50 (OVCAR-8): > 100 µM (inactive)
- GI50 (SK-MEL-2): > 100 µM (inactive)
- GI50 (OVCAR-5): > 100 µM (inactive)
- GI50 (RXF 393): > 100 µM (inactive)
- GI50 (NCI/ADR-RES): > 100 µM (inactive)
- GI50 (SNB-19): > 100 µM (inactive)
- GI50 (SR): > 100 µM (inactive)
- GI50 (PC-3): > 100 µM (inactive)
- GI50 (IGROV-1): > 100 µM (inactive)
- GI50 (HOP-62): > 100 µM (inactive)
- GI50 (NCI-H522): > 100 µM (inactive)
- GI50 (SF-295): > 100 µM (inactive)
- GI50 (SK-MEL-5): > 100 µM (inactive)
- GI50 (SF-268): > 100 µM (inactive)
- GI50 (T47D): > 100 µM (inactive)
- GI50 (DU-145): > 100 µM (inactive)
- GI50 (K562): > 100 µM (inactive)
- GI50 (SF-539): > 100 µM (inactive)
- GI50 (HCT-15): > 100 µM
- GI50 (SK-OV-3): > 100 µM (inactive)
- GI50 (MDA-MB-435): > 100 µM (inactive)
- GI50 (SN12C): > 100 µM (inactive)
- GI50 (COLO 205): > 100 µM (inactive)
- GI50 (HCC 2998): > 100 µM (inactive)
- GI50 (U-251): > 100 µM (inactive)
- GI50 (BT-549): > 100 µM (inactive)
- GI50 (NCI-H460): > 100 µM (inactive)

SMILES: COC1=CC(=O)O/C1=C(\OC)C1OC1c1ccccc1 (configuration not stated)
- GI50 (RPMI-8226): > 100 µM (inactive)
- GI50 (HT-29): > 100 µM (inactive)
- GI50 (UACC-62): > 100 µM (inactive)
- GI50 (OVCAR-3): > 100 µM (inactive)
- GI50 (NCI-H226): > 100 µM (inactive)
- GI50 (HOP-92): > 100 µM (inactive)
- GI50 (MOLT-4): 53.7 µM (inactive)
- GI50 (KM12): > 100 µM (inactive)
- GI50 (MCF7): > 100 µM (inactive)
- GI50 (TK-10): > 100 µM (inactive)
- GI50 (M14): > 100 µM (inactive)
- GI50 (MDA-MB-231): 74.3 µM (inactive)
- GI50 (Hs-578T): > 100 µM (inactive)
- GI50 (ACHN): > 100 µM (inactive)
- GI50 (CAKI-1): > 100 µM (inactive)
- GI50 (SK-MEL-28): > 100 µM (inactive)
- GI50 (UO-31): > 100 µM (inactive)
- GI50 (A549): > 100 µM (inactive)
- GI50 (786-0): > 100 µM (inactive)
- GI50 (A498): > 100 µM (inactive)
- GI50 (LOX IMVI): > 100 µM (inactive)
- GI50 (HCT-116): > 100 µM (inactive)
- GI50 (SW-620): > 100 µM (inactive)
- GI50 (Malme-3M): > 100 µM (inactive)
- GI50 (UACC-257): > 100 µM (inactive)
- GI50 (EKVX): > 100 µM (inactive)
- GI50 (OVCAR-8): > 100 µM (inactive)
- GI50 (SK-MEL-2): > 100 µM (inactive)
- GI50 (NCI-H23): > 100 µM (inactive)
- GI50 (OVCAR-5): > 100 µM (inactive)
- GI50 (RXF 393): > 100 µM (inactive)
- GI50 (NCI/ADR-RES): > 100 µM (inactive)
- GI50 (SNB-19): > 100 µM (inactive)
- GI50 (SR): 13 µM (inactive)
- GI50 (PC-3): > 100 µM (inactive)
- GI50 (IGROV-1): > 100 µM (inactive)
- GI50 (HOP-62): > 100 µM (inactive)
- GI50 (OVCAR-4): > 100 µM (inactive)
- GI50 (NCI-H522): > 100 µM (inactive)
- GI50 (SF-295): > 100 µM (inactive)
- GI50 (CCRF-CEM): 35.2 µM (inactive)
- GI50 (SK-MEL-5): > 100 µM (inactive)
- GI50 (SF-268): > 100 µM (inactive)
- GI50 (T47D): 76 µM (inactive)
- GI50 (DU-145): > 100 µM (inactive)
- GI50 (SF-539): > 100 µM (inactive)
- GI50 (HCT-15): > 100 µM
- GI50 (SK-OV-3): > 100 µM (inactive)
- GI50 (MDA-MB-435): > 100 µM (inactive)
- GI50 (HL-60): 85.7 µM (inactive)
- GI50 (SN12C): > 100 µM (inactive)
- GI50 (COLO 205): > 100 µM (inactive)
- GI50 (HCC 2998): > 100 µM (inactive)
- GI50 (U-251): > 100 µM (inactive)
- GI50 (BT-549): > 100 µM (inactive)
- GI50 (NCI-H460): > 100 µM (inactive)
